# Test results: US5473039A, “Polypeptide analogs of apolipoprotein E, diagnostic systems and methods using the analogs” (The Scripps Research Institute, priority 1991, dated 1995)
# Key:
# [1] = tested on: ovarian theca/interstitial cells; assay: ovarian androgen (androstenedione) production, LH-stimulated cultures; format: cell-based, rats; settings: 48 hours
# Description: The cell system used to examine the effect of various peptides and conjugates on ovarian androgen production was that described by Curtiss et al., J. Biol. Chem., 263:10965, (1988). Briefly, hypophysectomized (pituitary removed) immature female rats are sacrificed by cervical dislocation. The ovaries taken from the rats were trimmed free of fat and other non-ovarian tissues, cut into approximately six to eight pieces per ovary and dissociated in a solution of collagenase Dnaase which degrades the connective tissue releasing cell clusters. Approximately one to two hours of 37C incubation is required to dissociate the tissue. The cells were washed three times with fresh McCoy's 5A modified medium supplemented with glutamine and penicillin/streptomycin. No serum was added to this medium. The cells were cultured over night in 10 ml of medium in a T-25 flask to allow the non-steroidogenic cells to adhere. The next day non-adherent cells were recovered, washed three times with fresh media, counted and plated at a density of 1×10^3/ ml aliquotting 0.2 ml per well of a 96-well microtiter plate. All media in the experiment contains luteinizing hormone (LH) at 4 ng/ml and human high density lipoprotein (HDL) at 300 μg protein/mi. Monomeric peptides, peptide-BSA conjugates and self-conjugated peptide preparations at various concentrations (0.2 to 50 μg/ml) were added to the cells. The cells were then cultured for 48 hours at 37C, the supernatants were recovered, transferred to a clean 96-well microtiter plate and kept at -20C until the concentrations of androstenedione and progesterone were measured by radioimmunoassay. Each data point represents the average of measured androstenedione concentrations in four wells per treatment, and the standard error was less than 10% for all data points.
# The ability of tandem Apo E peptide p(141-155)2 and self-conjugates of this peptide to affect ovarian androgen production was examined using the assay described in Example 4. […] After 48 hours of culture, the supernatants were collected, the androstenedione concentration measured by radioimmunoassay. […]
# [2] = tested on: Human peripheral blood mononuclear (PBM) cells; assay: PHA-stimulated PBM cell proliferation in serum-free CFBI medium; format: cell-based
# Protocol: In these studies, human peripheral blood mononuclear (PBM) cells were isolated and assayed for phytohemagglutinin (PHA)-stimulated proliferation as described by Pepe et al (J. Immunol., 136:3716-3723, 1986) except that the cells were resuspended and cultured in a serum-free and protein-free CFBI medium as described by Shive et al, Proc. Natl. Acad. Sci. […] After 48 h the cultures were pulsed for 18 h with […] of [^3 H]-methylthymidine and harvested onto glass fiber filters. Radioactivity of the filters was counted in a Beckman liquid scintillation counter. […] The average biological activity of each polypeptide for inhibiting lymphocyte […] proliferation is shown in Table 6, and is expressed as an average specific activity, which is the peptide concentration that causes a 50% reduction in activity.
# scavenger receptor = assay: 125I-aLDL degradation by PMA-stimulated THP-1 cells; format: cell-based, human
# Protocol: To verify that the inhibition of LDL degradation was specific for the LDL receptor, the effect of the tandem peptide on scavenger receptor processing of acetylated LDL (aLDL) was tested.
# THP-1 cells (5×10^5 in 1.0ml of DMEM medium per 16 mm culture dish) were stimulated with PMA (10^-7 M) for 4 days. LDL was acetylated (Hara, H. et al., Biochem. Biophys. Res. Comm., 146(2):802-808, 1987) and then radio-labeled as described in Example 8 to a specific activity of 300-500 cpm/ng resulting in ^125 I-aLDL that was greater than 99% precipitable by 10% TCA. The cells were washed with PBS and the assay performed in DMEM medium supplemented with 1% Nutridoma-HU plus 25 μg/ml of ^125 I-aLDL. After 5 hr at 37° C., the supernatants were removed from the wells and extracted with 10% TCA. The B/B0 ratios were analyzed as described above. The results are depicted in FIG. 1B.
# [3] = tested on: Human peripheral blood mononuclear (PBM) cells; assay: PHA-stimulated lymphocyte proliferation (3H-thymidine uptake); format: cell-based; settings: Example 17
# Description: A lymphocyte cell culture system was used to examine the ability of various polypeptides and conjugates to mimic the ability of Apo E to inhibit lymphocyte differentiation as evidence by proliferation.
# Human peripheral blood mononuclear (PBM) cells are isolated from whole blood on a Ficoll-Hypaque gradient. The collected PBMs are washed three times with fresh medium (RPMI-1640 plus 5% fetal bovine serum, glutamine, penicillin, streptomycin and HEPES buffer). After washing, the cells are counted and set at a density of 1×10^5 /ml. For culture, 0.2 ml of the cells are plated per well of a 96-well microtiter plate. The peptide or conjugate is added to the wells in a 50 ul volume that can be either filter or UV sterilized. The typical timing for this experiment is to expose the cells to the Apo E polypeptide or self-conjugate over night. PHA, the mitogen that stimulates lymphocyte growth and proliferation, is added the next day. Forty-eight hours after the addition of PHA, 1 uCi of ^3 H-thymidine is added per well in a 1 ul volume and 18-24 hours later the cells are harvested on a mash. The mash cell harvester functions to collect the cells on filter paper where they are washed with buffer to remove free ^3 H-thymidine. The filter papers are dried, put into scintillation vials with scintillation cocktail and the B emissions obtained. Each data point collected represents the average thymidine uptake in four wells, and the standard error was less than 10% for all data points.
# Various concentrations of various Apo E peptide were added to cultures that contained 8×10^5 peripheral blood mononuclear cells per ml. The cells were cultured at 37C and RPMI with 5% serum. All cells were exposed to PHA at 24 hours, labeled with 3H-thymidine at 72 hours and harvested at 90 hours. The counts per minute (cpm) of 3H-thymidine in the harvested cells was measured, and the data are expressed as the mean of four wells per treatment as a measure of thymidine uptake (x 1000 cpm). The standard deviation was less than 10% for all means.
smiles,measurement,setting,value
CC(C)C[C@H](NC(=O)[C@H](CC(=O)O)NC(=O)[C@H](CC(=O)O)NC(=O)[C@H](C)NC(=O)[C@H](CC(=O)O)NC(=O)[C@H](CCCNC(=N)N)NC(=O)[C@H](CC(C)C)NC(=O)[C@H](CC(C)C)NC(=O)[C@H](CCCNC(=N)N)NC(=O)[C@H](CCCCN)NC(=O)[C@H](CCCNC(=N)N)NC(=O)[C@H](CC(C)C)NC(=O)[C@H](CCCCN)NC(=O)[C@H](CCCNC(=N)N)NC(=O)[C@H](CC(C)C)NC(=O)[C@H](CC(C)C)NC(=O)[C@H](CC(=O)O)NC(=O)[C@H](CC(=O)O)NC(=O)[C@H](C)NC(=O)[C@H](CC(=O)O)NC(=O)[C@H](CCCNC(=N)N)NC(=O)[C@H](CC(C)C)NC(=O)[C@H](CC(C)C)NC(=O)[C@H](CCCNC(=N)N)NC(=O)[C@H](CCCCN)NC(=O)[C@H](CCCNC(=N)N)NC(=O)[C@H](CC(C)C)NC(=O)[C@H](CCCCN)NC(=O)[C@H](CCCNC(=N)N)NC(=O)[C@@H](N)CC(C)C)C(=O)O [p(141-155)2],concentrations at which androstenedione production was enhanced,[1],less than 0.04 μg/ml
same,concentrations that inhibited androstenedione production,[1]; dose-dependent,0.2 to 2 µg/mL
same,biologic activity (inhibition of lymphocyte proliferation),[2],loss of biologic activity
same,peptide concentration above which uptake of tritiated thymidine / lymphocyte proliferation was inhibited,[2],above 4 uM
same,IC50,[2]; read-out: Average Specific Activity (peptide concentration that causes a 50% reduction in activity),4.8 ± 1.1 µM
same,effect on 125I-aLDL degradation,scavenger receptor; listed as tandem apo E peptide,no effect
same,effect on 125I-aLDL degradation,scavenger receptor; listed as tandem peptide,Neither LDL or tandem peptide inhibited
same,ED50 or dose of peptide required to inhibit lymphocyte proliferation 50%,[3],20 µM
